Data from article PMC9131871, “Impact of Micropolymorphism Outside the Peptide Binding Groove in the Clinically Relevant Allele HLA-C*14 on T Cell Responses in HIV-1 Infection” (Journal of Virology, 2022).

Legend:
[1] = biological target: HLA-C*14:02 (Homo sapiens, UniProt P10321, A176E/A330V/A35S/A97T/C350S/D114A/D33S/L171W/L180R/L218V/M285V/M309V/M331V/P208H/Q277E/Q291P/R121W/R243W/S123F/S297R/S48A/T329A/T363A/V319A); experiment: HLA stabilization assay on RMA-S-C1402 cells; format: cell-based; conditions: 100 μM peptide, 26°C 1 h then 37°C 3 h, MAb DT-9 staining, flow cytometry, triplicate assays
Source text: (§1) We next sought to confirm the HLA-C*14:02/C*14:03 restriction of the HIV-1 peptides identified by LC-MS/MS. First, we tested their ability to bind to HLA-C*14:02 or HLA-C*14:03 using HLA stabilization assays. Of the 25 HIV-1 peptides, three Env peptides, Env SI8, Env AM11, and Env VM9, are located in variable regions V2 and V3. In addition, Pol AF10, Pol PF8, Pol VWL9, and Env YI9 are located in regions where high sequence variation is reported in the LANL database. Therefore, we excluded these peptides from further analysis. The other 18 peptides were synthesized and tested for binding to HLA-C*14:02/C*14:03 by analyzing their ability to stabilize surface HLA expression on TAP-defective RMA-S cell lines expressing HLA-C*14:02 (RMA-S-C1402) or HLA-C*14:03 (RMA-S-C1403). These RMA-S cell lines express equivalent levels of HLA-C*14:02 and HLA-C*14:03 on the cell surface at 26°C, and surface HLA expression declines to very low levels when the cells are warmed to 37°C in the absence of exogenously added stabilizing peptides (Fig. 2A). Peptide binding was determined by evaluating whether HLA-I expression was stabilized in the presence of 100 μM peptide.
(§2) FIG 2 HLA-C*14:02/14:03 binding of HIV-1 peptides eluted from NL4-3-infected .221-C1402 and .221-C1403 cells as assessed by HLA stabilization assay using RMA-S cell lines. (A) Histogram plots showing surface expression of HLA-C*14:02 or HLA-C*14:03 on RMA-S-C1402 or RMA-S-C1403 cells at 26°C and after cells cultured at 26°C had been warmed to 37°C for 3 h. MFI values of cells cultured at 26°C were 27.4 for HLA-C*14:02 and 28.1 for HLA-C*14:03. MFI values of cells cultured at 37°C for 3 h were 5.0 for HLA-C*14:02 and 6.54 for HLA-C*14:03. (B) Analysis of binding of 14 HIV-1 NL4.3 peptides identified by LC-MS/MS to HLA-C*14:02 (blue) or HLA-C*14:03 (red) as measured in HLA class I stabilization assays using RMA-S-C1402 or RMA-S-C1403 cells. (C) Analysis of binding of 9 additional variant peptides to HLA-C*14:02 (blue) or C*14:03 (red). For panels B and C, peptides were tested at a concentration of 100 μM. Results are plotted as percent surface HLA-I expression relative to that at 26°C, calculated as the ratio of the MFI of peptide-pulsed RMA-S-C1402 or RMA-S-C1403 cells to that of control (non-peptide-pulsed) cells kept at 26°C, multiplied by 100. Means and standard deviations (SDs) from triplicate assays are shown. Statistical analyses were performed by unpaired t test. The P values were corrected for multiple testing. *, P < 0.05 and q < 0.05; **, P < 0.01 and q < 0.03; ***, P < 0.001 and q < 0.005.
(§3) The relative affinity of peptide binding to HLA-C*14:02 and -C*14:03 was examined using RMA-S-C1402 and RMA-S-C1403 cells as previously described ([15]). Briefly, RMA-S cells were cultured at 26°C for 16 h, pulsed with peptides at 26°C for 1 h, and subsequently incubated at 37°C for 3 h. Staining of cell surface HLA-C molecules was performed with the HLA-C-reactive monoclonal antibody (MAb) DT-9 ([48]), a gift from Mary Carrington, NIH, and fluorescein isothiocyanate (FITC)-conjugated sheep anti-mouse IgG (Jackson ImmunoResearch). Staining data were acquired on a FACSCanto II instrument (BD Biosciences) and analyzed using FlowJo 10.7.1 software. Relative HLA expression was calculated as the ratio of the mean fluorescence intensity (MFI) of peptide-pulsed RMA-S-C1402 cells or RMA-S-C1403 cells to that of control (non-peptide-pulsed) cells kept at 26°C, multiplied by 100 to express the values for peptide-pulsed cells as a percentage of that for the control cells at 26°C.

[2] = biological target: HLA-C*14:03 (Homo sapiens, UniProt P10321, A176E/A330V/A35S/A97T/C350S/D114A/D33S/L171W/L180R/L218V/M285V/M309V/M331V/P208H/Q277E/Q291P/R121W/R243W/R45H/S123F/S297R/S48A/T329A/T363A/V319A); experiment: HLA stabilization assay on RMA-S-C1403 cells; format: cell-based; conditions: 100 μM peptide, 26°C 1 h then 37°C 3 h, MAb DT-9 staining, flow cytometry, triplicate assays
Source text: as §1, §2, §3

[3] = test system: T cells of a volunteer enrolled in an HIV vaccine trial; conditions: cited from earlier work
Source text: We identified 6 HLA-C*14:02/C*14:03 epitopes in the present study. Five of these peptides were detected by LC-MS/MS in HLA-I eluates from both HLA-C*14:02^+ and HLA-C*14:03^+ .221 cells infected with HIV-1, and T cells specific for all 6 epitopes effectively recognized both HIV-1-infected HLA-C*14:02^+ and HLA-C*14:03^+ .221 cells. […] Responses to two of these peptides, Gag LY9 and Nef YT9, were identified in a previous study that analyzed T cell responses ...

FHHMAREK [NefFL8-4M8K, variant of Nef FL8, FHHMAREK, present in Japanese cohort viruses]
binding to HLA-C*14:02 (stabilization of surface HLA expression) [1]: detectable binding to the HLA-C*14 molecules with the exception of NefFL8-4M8K | binding to HLA-C*14:03 (stabilization of surface HLA expression) [2]: detectable binding to the HLA-C*14 molecules with the exception of NefFL8-4M8K

LYNTVATL [Gag LL8-5V7T]
HLA-C*14-restricted HIV-1 epitope status [3]: identified as an HLA-C*14-restricted HIV-1 epitope
